Molecules are shown by their SMILES. pIC50: −log10 of the molar value. Read-outs that look alike come from different tables or passages of the source.

Common to all, as to type: cell-based, human
Experiment [1] relates to HeLa (Cervical cancer cell line). Description: Anti-proliferative assay (Cell Titer-Glo), HeLa. On the technique in general: Cellular ATP, detected with luciferase, serves as a proxy for viable cell number.
Experiment [2] has as its system MCF-7 (Breast cancer cell line). Description: Anti-proliferative assay (Cell Titer-Glo), MCF-7.
The test system of experiment [3] is DU-145 (Prostate cancer cell line). Put plainly: Anti-proliferative assay (Cell Titer-Glo), DU-145. As for the experimental part: Cell culture & Reagents: All cell lines, used for the anti-proliferative screen, were obtained from American Type Culture Collection (ATCC). HeLa (Cervical cancer cell line), MCF-7 (Breast cancer cell line) and DU-145 (Prostate cancer cell line) were cultured in Dulbecco's modified Eagle's medium (DMEM, GIBCO), containing 10% fetal bovine serum (FBS; Life Technologies), penicillin and streptomycin (10,000 U/mL), at 37° C. and in 5% CO2. Cell Titer-Glo® Luminescent Cell Viability Assay kit (Cat No. G7573) was purchased from Promega to determine the number of viable cells in culture based on quantitation of the ATP present, which signals the presence of metabolically active cells.
Anti-Proliferative assay: For anti-proliferative screening, 2500 cells per well (For HeLa and DU-145 cell lines) and 5000 cells per well (for MCF-7 cell line) numbers of cells were seeded in a white opaque plate and incubated for 24 Hrs in 5% CO2 incubator at 37° C. After 24 Hrs, compound dilutions were prepared as per the required concentrations in cell culture medium (DMEM) and diluted compounds were added and incubated with cells for 72 Hrs at 37° C. in 5% CO2 incubator in the same 96 well-plate. After 72 Hrs, Cell Titer-Glo® reagent vial was reconstituted with 100 mL of Cell Titer Glo buffer and 100 μL of prepared reagent was added to each well. After incubating at room temperature for 30 minutes, luminescence was captured using luminescence plate reader (EnVision® Multilabel Plate Reader from Perkin Elmer). Generated data was exported to the excel file and data was analyzed using Graph Pad Prism to calculate IC50 value of the unknown inhibitor.
Compounds were screened against different cancer cell lines [HeLa, DU-145, MCF-7 and SKOV3] for anti-proliferative activity using luminescence based cell proliferation assay using Promega Glo kit are shown in FIG. 3.

Experiment [4] concerns SKOV3 (Ovarian cancer cells). Description: Anti-proliferative assay, SKOV3.
[5] abbreviates: Table 1, reference compounds, read-out: IC50 DU-145 cells.

By pIC50 is commonly meant the negative decadic logarithm of the IC50, by convention in mol/L. On to `COc1ccc(C[C@H](N)C(=O)N[C@H]2[C@@H](O)[C@H](n3cnc4c(N(C)C)ncnc43)O[C@@H]2CO)cc1` [Puromycin], for which the pIC50 in experiment [1] (Homo sapiens, HeLa, Table 1, reference compounds, read-out: IC50 HeLa cells) was 6.21; in experiment [1] (Homo sapiens, HeLa, Table 2, reference compounds section, read-out: HeLa IC50), 6.41; in experiment [2] (Homo sapiens, MCF7, Table 1, reference compounds, read-out: IC50 MCF-7 cells), 6.39; in experiment [2] (Homo sapiens, MCF7, Table 2, reference compounds section, read-out: MCF-7 IC50), 6.60; in experiment [3] (Homo sapiens, DU-145, Table 1, reference compounds, read-out: IC50 DU-145 cells) it was 6.01; in experiment [3] (Homo sapiens, DU-145, Table 2, reference compounds section, read-out: DU-145 IC50) it was 6.42. Also, the pIC50 in experiment [4] (Homo sapiens, SK-OV-3, Table 1, reference compounds, read-out: IC50 SKOV3 cells) is 6.53; in experiment [4] (Homo sapiens, SK-OV-3, Table 2, reference compounds section, read-out: SKOV3 IC50) it was 6.53.

As for `O=C(CCCCCCC(=O)Nc1ccccc1)NO` [SAHA], in experiment [3] (setting [5]), the negative logarithm of the IC50 (pIC50) is 6.10.

For the compound `CC(/C=C/C(=O)NO)=C\[C@@H](C)C(=O)c1ccc(N(C)C)cc1` [TSA, Trichostatin A], the negative logarithm of the IC50 (pIC50) is 6.91 in experiment [1] (Table 1, reference compounds, read-out: IC50 HeLa cells); 6.82 in experiment [2] (Table 1, reference compounds, read-out: IC50 MCF-7 cells); 6.27 in experiment [3] (setting [5]); 6.62 in experiment [4] (Table 1, reference compounds, read-out: IC50 SKOV3 cells).

The record behind these values is US11072583B2, “Indole (sulfomyl) n-hydroxy benzamide derivatives as selective HDAC inhibitors” (COUNCIL OF SCIENTIFIC & INDUSTRIAL RESEARCH, priority 2017, dated 2021).
